Assay results published in patent publication US11155551B2, “Nicotinic acetylcholine receptor silent agonists” (University of Florida Research Foundation, Inc., priority 2015, dated 2021).

How the values were obtained:
[1] = target: T1, human α7 nAChR (Homo sapiens, UniProt P36544); experiment: Two-electrode voltage clamping of human α7 nAChR expressed in Xenopus oocytes (net-charge / peak current relative to 60 μM ACh); format: cell-based; settings: for functional classification at α7 nAChR: 30 μM alone and with 10 μM PNU-120596, partial agonist = net charge > 1/10th ACh control; for Potentiated response: 30 μM test compound + 10 μM PNU-120596 co-application; for Potentiated response / Relative response: relative to 60 μM ACh control, mean ± SEM, N ≥ 4; for PAM-dependent response compared to the parent diEPP: co-application with PNU-120596; for Relative response: net-charge response to 30 μM test compound alone; for PNU Response: 30 μM compound + 10 μM PNU-120596, relative to 60 μM ACh controls (n ≥ 4); for Net Charge / Peak current: 30 μM compound alone, relative to 60 μM ACh controls (n ≥ 4); for Ratio (peak current to net charge): 30 μM, normalized peak current / normalized net charge; for Estimated Rank efficacy / Estimated Rank potency: rank among six partial agonists; for Estimated Rank potency: from peak-current-to-net-charge ratio; for PAM-dependent currents relative to ACh: co-application with PNU-120596, meta-substituted series
T1 construct: expressed in transfected cells; host or cells: Xenopus oocytes
T1 sequence (P36544 23-502): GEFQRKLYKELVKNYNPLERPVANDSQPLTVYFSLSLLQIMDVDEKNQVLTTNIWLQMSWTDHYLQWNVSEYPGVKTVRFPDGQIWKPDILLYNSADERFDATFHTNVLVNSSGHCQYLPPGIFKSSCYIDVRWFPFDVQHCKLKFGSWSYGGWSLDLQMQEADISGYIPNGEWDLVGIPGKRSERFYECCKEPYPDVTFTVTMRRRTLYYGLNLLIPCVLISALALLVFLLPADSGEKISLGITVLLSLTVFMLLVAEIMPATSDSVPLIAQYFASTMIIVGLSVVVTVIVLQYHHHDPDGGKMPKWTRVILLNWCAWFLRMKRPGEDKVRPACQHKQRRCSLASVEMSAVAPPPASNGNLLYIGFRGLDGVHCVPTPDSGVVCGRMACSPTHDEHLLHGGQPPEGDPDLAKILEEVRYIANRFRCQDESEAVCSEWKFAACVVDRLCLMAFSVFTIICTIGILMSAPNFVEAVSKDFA
Protocol: Electrophysiology: The panel of compounds synthesized was assayed using human α7 nAChR expressed in Xenopus oocytes and two-electrode voltage clamping. The partial agonism activity was evaluated, quantified as net-charge for 30 μM applications of compounds, measured relative to the control response to applications of 60 μM ACh. The induction of PAM-sensitive desensitization was detected as the net-charge responses when compounds were co-applied with the PAM PNU-120596 (30 μM compound+10 μM PNU-120596), measured relative to responses to 60 μM ACh applied alone. […] It is a unique property of α7 orthosteric agonist-induced currents that they vary systematically in the relationship between peak current and net charge as a function of the effective concentration applied (Papke & Papke (2002) Br. J. Pharm. 137: 49-61; Papke & Thinschmidt (1998) Neurosci. Let. 256: 163-166). This was due to the concentration-dependent desensitization of the receptors, which is likely to be associated with high levels of agonist binding site occupancy (Williams et al., (2011) J. Gen. Physiol. 137: 369-384) and is observed even when agonists are rapidly applied to small cells (Williams et al., (2012) Mol. Pharmacol. 82: 746-759) or acutely dissociated neurons (Uteshev et al., (2002) Brain Res. 948: 33-46). The control ACh concentration used for these experiments is roughly the EC80 for the net-charge responses.
By normalizing both the peak currents and net-charge measurements of the drug responses at the probe concentration of 30 μM (FIG. 3B) to those of the ACh control, the relationship between the probe concentration and the EC for each of the drugs was estimated (Papke, R. L. (2005) Life Sci.). At a concentration where the ratio of the normalized measures equaled one, the drug would be at the same effective concentration as 60 μM ACh.
Electrophysiology: New compounds were assayed for activity with the α7 nAChR expressed in Xenopus oocytes using two-electrode voltage clamping as previously described in Papke et al., (2014) J. Pharmacol. Experimental Therap. 350: 665-680, incorporated herein by reference in its entirety, and compared to responses evoked by 60 μM Ach (FIGS. 5 and 6). The compound set was assayed at a concentration of 30 μM to provide a standard comparison benchmark.
Based on earlier experience this concentration is high enough to provide an observable response and low enough to avoid possible complications such as channel block. The net-charge response for each compound application is reported relative to those for ACh control applications. Data were expressed as the mean ±S.E.M. from at least four oocytes for each experiment and were plotted by Kaleidagraph (Abelbeck Software, Reading, Pa.).

Row | SMILES | functional classification at α7 nAChR [1] | Potentiated response [1] | Relative response [1] | further results
1 | CC[N+]1(CC)CCN(c2cccc(C#N)c2)CC1.[I-] [Compound 2i, 4-(3-cyanophenyl)-1,1-diethylpiperazin-1-ium iodide] | no significant activity as either partial agonists or as silent agonists | 1.5 ± 0.7 | 0.022 ± 0.024 | PAM-dependent response compared to the parent diEPP [1]: equivalent
2 | CCN1CCN(c2ccc(Br)cc2)CC1 |  |  |  | melting point: 85 to 85.5 °C
3 | CC[N+]1(CC)CCN(c2ccccc2C)CC1.[I-] [Compound 2h, 1,1-diethyl-4-o-tolylpiperazin-1-ium iodide] | partial agonists | 16.4 ± 2.4 | 0.319 ± 0.066 | PNU Response [1]: 16 ± 2; Net Charge [1]: 0.32 ± 0.07; Peak current [1]: 0.15 ± 0.02; Ratio (peak current to net charge) [1]: 0.46; Estimated Rank efficacy [1]: 1; Estimated Rank potency [1]: 5
4 | CC[N+]1(CC)CCN(c2cccc(F)c2)CC1.[I-] [Compound 2s, 1,1-diethyl-4-(3-fluorophenyl)piperazin-1-ium iodide] | no significant activity as either partial agonists or as silent agonists | 0.2 ± 0.1 | 0.061 ± 0.089 | PAM-dependent currents relative to ACh [1]: 0.2 fold
5 | CC[N+]1(CC)CCN(c2ccc(C#N)cc2)CC1.[I-] [Compound 2b, 4-(4-cyanophenyl)-1,1-diethylpiperazin-1-ium iodide] | partial agonists | 68.0 ± 25.4 | 0.234 ± 0.024 | PNU Response [1]: 68 ± 25; Net Charge [1]: 0.23 ± 0.02; Peak current [1]: 0.10 ± 0.01; Ratio (peak current to net charge) [1]: 0.43; Estimated Rank efficacy [1]: 3; Estimated Rank potency [1]: 6
6 | CCN1CCN(c2ccc3ccccc3c2)CC1 |  |  |  | melting point: 69.1 to 70 °C
7 | CC[N+]1(CC)CCN(c2cccc(C(F)(F)F)c2)CC1.[I-] [Compound 2o, 1,1-diethyl-4-(3-(trifluoromethyl)phenyl)piperazin-1-ium iodide] | candidate silent agonists | 3.1 ± 2.1 | 0.000 ± 0.002 | 
8 | CC[N+]1(CC)CCN(c2cccc(Cl)c2)CC1.[I-] [Compound 2f, 4-(3-chlorophenyl)-1,1-diethylpiperazin-1-ium iodide] | candidate silent agonists | 4.2 ± 1.0 | 0.020 ± 0.003 | PAM-dependent currents relative to ACh [1]: 4.23 fold
9 | CC[N+]1(CC)CCN(c2ccc(OC)cc2)CC1.[I-] [Compound 2c, 1,1-diethyl-4-(4-methoxyphenyl)piperazin-1-ium iodide] | candidate silent agonists | 11.6 ± 0.3 | 0.063 ± 0.014 | 
10 | CC[N+]1(CC)CCN(c2ccc(Br)cc2)CC1.[I-] [Compound 2q, 4-(4-bromophenyl)-1,1-diethylpiperazin-1-ium iodide] |  | 12.3 ± 3.5 | 0.270 ± 0.017 | 
11 | CC[N+]1(CC)CCC(Nc2ccccc2)CC1.[I-] [Compound 6, 1,1-diethyl-4-(phenylamino)piperidinium iodide] | no channel activation within experimental error | 5.6 ± 2.1 | 0.002 ± 0.004 | PAM-dependent response compared to the parent diEPP [1]: enhanced PAM-dependent responses
12 | CCN1CCN(c2ccc(OC)cc2)CC1 |  |  |  | melting point: 56.6 to 57.8 °C
13 | CC[N+]1(CC)CCN(c2ccc(F)cc2)CC1.[I-] [Compound 2r, 1,1-diethyl-4-(4-fluorophenyl)piperazin-1-ium iodide] | candidate silent agonists | 22.9 ± 5.8 | 0.010 ± 0.002 | 
14 | CC[N+]1(CC)CCN(c2ccc3ccccc3c2)CC1.[I-] [Compound 2m, 1,1-diethyl-4-(naphthalen-2-yl)piperazin-1-ium iodide] | partial agonist | 15.9 ± 2.3 | 0.143 ± 0.018 | PNU Response [1]: 16 ± 2; Net Charge [1]: 0.14 ± 0.02; Peak current [1]: 0.10 ± 0.02; Ratio (peak current to net charge) [1]: 0.71; Estimated Rank efficacy [1]: 6; Estimated Rank potency [1]: 1
15 | CC[N+]1(CC)CCN(c2ccccc2Cl)CC1.[I-] [Compound 2j, 4-(2-chlorophenyl)-1,1-diethylpiperazin-1-ium iodide] | partial agonists | 36.6 ± 6.1 | 0.367 ± 0.054 | PNU Response [1]: 37 ± 6; Net Charge [1]: 0.37 ± 0.05; Peak current [1]: 0.23 ± 0.03; Ratio (peak current to net charge) [1]: 0.63; Estimated Rank efficacy [1]: 2; Estimated Rank potency [1]: 4
16 | CCN1CCN(c2cccc(Cl)c2)CC1 [Compound 1f, 1-(3-chlorophenyl)-4-ethylpiperazine] |  | 0.1 ± 0.1 | 0.009 ± 0.008 | 
17 | CC[N+]1(CC)CCN(c2ccc(Cl)cc2)CC1.[I-] [Compound 2e, 4-(4-chlorophenyl)-1,1-diethylpiperazin-1-ium iodide] | partial agonists | 18.3 ± 6.2 | 0.234 ± 0.048 | PNU Response [1]: 18 ± 6; Net Charge [1]: 0.23 ± 0.05; Peak current [1]: 0.17 ± 0.02; Ratio (peak current to net charge) [1]: 0.71; Estimated Rank efficacy [1]: 5; Estimated Rank potency [1]: 1
18 | CC[N+]1(CC)CCN(c2ccc(C(N)=O)cc2)CC1.[I-] [Compound 2t, 4-(4-carbamoylphenyl)-1,1-diethylpiperazin-1-ium iodide] | candidate silent agonists | 43.9 ± 8.5 | 0.065 ± 0.009 | 
19 | CC[N+]1(CC)CCN(c2ccc(OC)cc2OC)CC1.[I-] [Compound 2l, 4-(2,4-dimethoxyphenyl)-1,1-diethylpiperazin-1-ium iodide] | not a partial agonist | 1.1 ± 0.1 | 0.014 ± 0.009 | 
20 | CCN1CCN(c2cccc(Br)c2)CC1 [Compound 1p, 1-(3-bromophenyl)-4-ethylpiperazine] | modest silent agonism | 6.9±2.4 | 0.000 ± 0.003 | response relative to diEPP ([1]; PAM co-application response): approximately 5 fold; response relative to its corresponding quaternary salt 2p ([1]; PAM co-application response): 0.69 fold
21 | CC[N+]1(CC)CCN(c2cccc(C(N)=O)c2)CC1.[I-] [Compound 2u, 4-(3-carbamoylphenyl)-1,1-diethylpiperazin-1-ium iodide] | candidate silent agonists | 50.7 ± 8.5 | 0.056 ± 0.022 | 
22 | CC[N+]1(CC)CCN(c2cccc(O)c2)CC1.[I-] [Compound 2k, 1,1-diethyl-4-(3-hydroxyphenyl)piperazin-1-ium iodide] | partial agonists | 31.4 ± 5.1 | 0.283 ± 0.013 | PNU Response [1]: 31 ± 5; Net Charge [1]: 0.28 ± 0.02; Peak current [1]: 0.19 ± 0.02; Ratio (peak current to net charge) [1]: 0.67; Estimated Rank efficacy [1]: 4; Estimated Rank potency [1]: 3
23 | CC[N+]1(CC)CCC(=Cc2ccccc2)CC1.[I-] [Compound 8, 4-benzylidene-1,1-diethylpiperidinium iodide] |  | 9.9 ± 3.1 | 0.071 ± 0.027 | PAM-dependent response compared to the parent diEPP [1]: enhanced PAM-dependent responses
24 | CCN1CCN(c2cccc(O)c2)CC1 |  |  |  | melting point: 150.3 to 151.6 °C
